Marks after values point to notes of the source that are not given here.
Assays:
[1] = Separate experiment: solubility of palmitic acid in hexanes with switchable surfactant activation; type: physicochemical; settings: 1 mg/mL surfactant
From the text: The second vial was exposed to 365-nm ultraviolet light that activated the surfactant; the solution turned magenta due to the color of the merocyanine.

[2] = Lifetimes (half-life) of the activated merocyanine surfactants in solvents; type: physicochemical; settings: error limits 10-20%
Procedure: Lifetimes of the activated zwitterionic merocyanine isomers of compounds 4a, 4b, 4c, and 4e in several solvents were determined.
The spiropyran compound 4 was added to a solvent in a 1-cm quartz cuvette and the cuvette was irradiated with ultraviolet light at 365 nm for ˜60 seconds. […] Absorption spectra were recorded from 450 to 650 nm every 5 seconds over a 350-second observation time. The concentrations of the merocyanine were adjusted so that the initial t=0 absorbance at the absorption maximum (λmax) was in the range of 1-1.4. All kinetics experiments were done in triplicate once an appropriate spiropyran/merocyanine surfactant concentration was determined. The absorbances at λmax were normalized to the highest value, and the three data sets averaged to give the normalized absorbances as a function of time. If the normalized absorbance had dropped to at least 0.5 during the 350-s monitoring time, the half-life was taken as the time at which the normalized absorbance had reached 0.5.

[3] = in acetone, after 365 nm irradiation
[4] = in cyclohexane, after 365 nm irradiation
[5] = in ethanol, longer than 350 s monitoring, by extrapolation of exponential fit
[6] = in ethyl acetate, after 365 nm irradiation
[7] = in methanol, longer than 350 s monitoring, by extrapolation of exponential fit
[8] = in octanol, longer than 350 s monitoring, by extrapolation of exponential fit
[9] = in toluene, after 365 nm irradiation

Row | reversibility after UV-treated solution placed in the dark ([1]; 53 mg/mL palmitic acid) | palmitic acid dissolved with activated surfactant ([1]; 53 mg/mL palmitic acid charged, 365-nm ultraviolet light) | dissolution of palmitic acid with ground-state surfactant ([1]; 53 mg/mL palmitic acid charged, kept in the dark) | Merocyanine Half-life [2, 3] | Merocyanine Half-life [2, 4] | Merocyanine Half-life [2, 5] | Merocyanine Half-life [2, 6] | Merocyanine Half-life [2, 7] | Merocyanine Half-life [2, 8] | Merocyanine Half-life [2, 9] | Structure (SMILES)
1 | precipitate began to form | 53 mg/mL | not fully dissolved | – | – | – | – | – | – | – | CCCCCCCCCCCCCCCCCCN1c2ccccc2C(C)(C)C12C=Cc1cc([N+](=O)[O-])ccc1O2 (stereo not shown) [4e, 3′,3′-Dimethyl-6-nitro-1′-octadecylspiro[chromene-2,2′-indoline]]
2 | – | – | – | 103 s | 14 s | 1200 s | 19 s | 4900 s | 610 s | 16 s | C[N+]1=C(/C=C/c2cc([N+](=O)[O-])ccc2[O-])C(C)(C)c2ccccc21 [5a]
3 | – | – | – | 130 s | 44 s | 1300 s | 23 s | 23000 s | 610 s | 32 s | CCCC[N+]1=C(/C=C/c2cc([N+](=O)[O-])ccc2[O-])C(C)(C)c2ccccc21 [5b]
4 | – | – | – | 153 s | 40 s | 1500 s | 20 s | >10^4‡ seconds | 610 s | 38 s | CCCCCCCC[N+]1=C(/C=C/c2cc([N+](=O)[O-])ccc2[O-])C(C)(C)c2ccccc21 [5c]
5 | – | – | – | 114 s | 40 s | 1450 s | 20 s | 11000 s | 830 s | 49 s | CCCCCCCCCCCCCCCCCC[N+]1=C(/C=C/c2cc([N+](=O)[O-])ccc2[O-])C(C)(C)c2ccccc21 [5e]
